Counter-ions that a name gives are not always drawn.

For the assay, the target named is human NK1R (Homo sapiens, UniProt P25103). Put plainly: biochemical. The following applies: displacement of 125I-substance P; human NK1R in COS or CHO cells. It is filed as binding. On the procedure: To express the cloned human neurokinin-1-receotor (NK1R) transiently in COS, the cDNA for the human NK1R was cloned into the expression vector pCDM9 which was derived from pCDM8 (INVITROGEN) by inserting the ampicillin resistance gene (nucleotide 1973 to 2964 from BLUESCRIPT SK+ (trademark, […], La Jolla, Calif., U.S.A.)) into the Sac II site. Transfection of 20 ug of the plasmid DNA into 10 million COS cells was achieved by electroporation in 800 μl of transfection buffer (135 mM NaCl, 1.2 mM CaCl2, 1.2 mM MgCl2, 2.4 mM K2 HPO4, 0.6 mM KH2 PO4, 10 mM glucose, 10 mM N-2-hydroxyethyl-piperazine-N'-2-ethane sulphonic acid (HEPES) pH 7.4) at 260 V and 950 μF using the IBI GENEZAPPER (trademark IBI, New Haven, Conn., U.S.A.). The cells were incubated in 10% fetal calf serum, 2 mM glutamine, 100 U/ml penicillin-streptomycin, and 90% DMEM media (GIBCO, Grand Island, N.Y., U.S.A.) in 5% CO2 at 37° C. for three days before the binding assay.
Sequence of human NK1R (P25103 whole entry): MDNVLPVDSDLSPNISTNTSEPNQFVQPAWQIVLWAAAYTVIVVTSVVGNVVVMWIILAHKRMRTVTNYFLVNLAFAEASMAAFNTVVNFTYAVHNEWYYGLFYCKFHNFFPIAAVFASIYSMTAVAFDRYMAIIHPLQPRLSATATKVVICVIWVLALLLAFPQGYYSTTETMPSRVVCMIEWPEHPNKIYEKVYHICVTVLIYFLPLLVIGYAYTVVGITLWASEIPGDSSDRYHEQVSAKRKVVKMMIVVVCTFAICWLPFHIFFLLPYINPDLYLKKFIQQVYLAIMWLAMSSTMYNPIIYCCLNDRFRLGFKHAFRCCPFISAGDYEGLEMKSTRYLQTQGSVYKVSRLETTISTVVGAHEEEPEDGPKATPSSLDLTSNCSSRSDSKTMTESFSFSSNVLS
To establish a stable cell line expressing cloned human NK1R, the cDNA was subcloned into the vector pRcCMV (INVITROGEN). Transfection of 20 ug of the plasmid DNA into CHO cells was achieved by electroporation in 800 μl of transfection buffer supplemented with 0.625 mg/ml Herring sperm DNA at 300 V and 950 μF using the IBI GENEZAPPER (IBI). The transfected cells were incubated. in CHO media [10% fetal calf serum, 100 U/ml penicillin-streptomycin, 2 mM glutamine, 1/500 hypoxanthinethymidine (ATCC), 90% IMDM media (JRH BIOSCIENCES, Lenexa, Kans., U.S.A.), 0.7 mg/ml G418 (GIBCO)] in 5% CO2 at 37° C. until colonies were visible. Each colony was separated and propagated. The cell clone with the highest number of human NK1R was selected for subsequent applications such as drug screening.
The binding assay of human NK1R expressed in either COS or CHO cells is based on the use of ^125 I-substance P (^125 I-SP, from DU PONT, Boston, Mass.) as a radioactively labeled ligand which competes with unlabeled substance P or any other ligand for binding to the human NK1R. […] The tubes were incubated at 4° C. or at room temperature for 1 hour with gentle shaking. The bound radioactivity was separated from unbound radioactivity by GF/C filter (BRANDEL, Gaithersburg, Md.) which was prewetted with 0.1% polyethylenimine. The filter was washed with 3 ml of wash buffer (50 mM Tris pH 7.5, 5 mM MnCl2, 150 mM NaCl) three times and its radioactivity was determined by gamma counter.
(Displacement assays read how much labelled ligand stays bound in the presence of the test substance.)
As a reminder, the IC50 is the point on the concentration scale where inhibition reaches its midpoint. Low values mean greater potency, high ones weaker potency. Take `O=C1CCC(C(=O)NC(COCc2cc(C(F)(F)F)cc(C(F)(F)F)c2)C(c2ccccc2)c2ccccc2)N1` (stereo not shown) [Example 63, 1-((3,5-Bis(trifluoromethyl)phenyl)methyloxy)-3,3-diphenyl-2-(pyroglutamylamido)propane]: the IC50 turned out to be 30 nM. This counts as double-digit nanomolar.
For the compound `COC(=O)CCNC(COCc1cc(C(F)(F)F)cc(C(F)(F)F)c1)C(c1ccccc1)c1ccccc1` (stereo not shown) [Example 65, 1-((3,5-Bis(trifluoromethyl)phenyl)methyloxy)-2-(2-(carbomethoxy)ethylamino)-3,3-diphenylpropane], the IC50 turned out to be 35 nM.
For the compound `O=C1CN(C(COCc2cc(C(F)(F)F)cc(C(F)(F)F)c2)C(c2ccccc2)c2ccccc2)CCN1` (stereo not shown) [Example 66, 4-((1-((3,5-Bis(trifluoromethyl)phenyl)methyloxy)-3,3-diphenyl)prop-2-yl)piperazinium-2-one hemi oxalate salt], the 50% inhibitory concentration (IC50) was 4 nM.
Next, `NC(C(=O)NCc1cc(C(F)(F)F)cc(C(F)(F)F)c1)C(c1ccccc1)c1ccccc1` (stereo not shown) [Example 67, 2-Amino-3,3-diphenyl-N-((3,5-bis(trifluoromethyl)phenyl)methyl)propionamide]: 220 nM; `Cc1cc(CNCC(N)C(c2ccccc2)c2ccccc2)cc(C(F)(F)F)c1` (stereo not shown) [Example 68, 2-Ammonium-3,3-diphenyl-1-((3-methyl, 5-trifluoromethyl)phenyl)methylamino)propane oxalate salt]: 400 nM.
`CS(=O)(=O)NC(COCc1cc(C(F)(F)F)cc(C(F)(F)F)c1)C(c1ccccc1)c1ccccc1` (stereo not shown) [Example 69, 1-((3,5-Bis(trifluoromethyl)phenyl)methyloxy)-3,3-diphenyl-2-methylsulphonamidopropane]: the IC50 worked out at 35 nM.
Next, `CN(CC(N)=O)C(COCc1cc(C(F)(F)F)cc(C(F)(F)F)c1)C(c1ccccc1)c1ccccc1` (stereo not shown) [Example 72, 1-((3,5-Bis(trifluoromethyl)phenyl)methyloxy)-2-(N-((carboxamido)methyl)-N-methyl)ammonium-3,3-diphenylpropane oxalate salt]: 7 nM.

For the origin of these results see patent US5629347A, “Aromatic compounds, pharmaceutical compositions containing them and their use in therapy” (Merck Sharp & Dohme Ltd., priority 1991, dated 1997).
